Results as given in patent publication US8133884B2, “Compounds for the treatment of hepatitis C” (priority 2008, dated 2012).
Like-named read-outs stand apart in the source and are kept apart here.

How the values were obtained:
1a replicon = assay: HCV replicon assay with a 1a replicon; assay type: cell-based; settings: Hepatitis C virus
From the text: To perform the HCV FRET screening assay, 96-well cell culture plates were used, The FRET peptide (Anaspec, Inc.) (Taliani et al., Anal. Biochem., 240:60-67 (1996)) contains a fluorescence donor, EDANS, near one end of the peptide and an acceptor, DABCYL, near the other end. The fluorescence of the peptide is quenched by […] resonance energy transfer (RET) between the donor and the acceptor, but as the NS3 protease cleaves the peptide the products are released from RET quenching and the fluorescence of the donor becomes apparent. The assay reagent was made as follows: 5× cell Luciferase cell culture lysis reagent from Promega (#E153A) diluted to 1× with dH2O, NaCl added to 150 mM final, the FRET peptide diluted to 20 μM final from a 2 mM stock.
To prepare plates, HCV replicon cells, with or without a Renilla luciferase reporter gene, were trypsinized and placed into each well of a 96-well plate with titrated test compounds added in columns 3 through 12; columns 1 and 2 contained a control compound (HCV protease inhibitor), and the bottom row contained cells without compound. The plates were then placed in a CO2 incubator at 37° C.
Subsequent to addition of the test compounds described above (FRET Assay Preparation), at various times the plate was removed and Alamar blue solution (Trek Diagnostics, #00-100) was added per well as a measure of cellular toxicity. After reading in a CYTOFLUOR® 4000 instrument (PE Biosystems), plates were rinsed with PBS and then used for FRET assay by the addition of 30 ul of the FRET peptide assay reagent described above (FRET Assay Preparation) per well. The plate was then placed into the CYTOFLUOR® 4000 instrument which had been set to 340 excite/490 emission, automatic mode for 20 cycles and the plate read in a kinetic mode. Typically, the signal to noise using an endpoint analysis after the reads was at least three-fold. Alternatively, after Alamar blue reading, plates were rinsed with PBS, 50 ul of DMEM (high glucose) without phenol red was added and plates were then used for luciferase assay using the Promega DUAL-GLO® Luciferase Assay System.
Compound analysis was determined by quantification of the relative HCV replicon inhibition and the relative cytotoxicity values. To calculate cytoxicity values, the average Alamar Blue fluorescence signals from the control wells were set as 100% non-toxic. The individual signals in each of the compound test wells were then divided by the average control signal and multiplied by 100% to determine […]. To calculate the HCV replicon inhibition values, an average background value was obtained from the two wells containing the highest amount of HCV protease inhibitor at the end of the assay period. These numbers were similar to those obtained from naïve Huh-7 cells. […]

HCV replicon = HCV replicon assay (FRET or luciferase reporter); assay type: cell-based; settings: one of the methods described, class symbol
Summary of the method: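 HCV replicon Huh-7 cells were exposed to titrated compound at 37 °C, with Alamar blue as a cytotoxicity read. Replication was measured by NS3 cleavage of an EDANS/DABCYL FRET peptide (20 μM, 340/490 nm kinetic read) or by Renilla luciferase, with background from high-dose protease inhibitor wells. EC50 was taken as 50% signal reduction; a 384-well format used 3.0×10^3 cells/well, 0.5% DMSO and 3 days.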

HCV NS5B = target: T1, HCV NS5B (Hepatitis C virus genotype 1b, UniProt Q9WMX2); assay: Modified HCV NS5B RdRp enzyme assay (preincubation protocol); assay type: biochemical; settings: class symbol
T1 construct: The protein was expressed with an 18 amino acid C-terminal truncation to enhance the solubility; made in house; host or cells: E. coli BL21(DE3)
Summary of the method: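 C-terminally truncated (Δ18) genotype 1b NS5B from E. coli, 14 nM, added to compound first, then polyA template (0.2 nM), 3H-UTP (0.29 μM) and oligo-dT12 primer precaptured on streptavidin SPA beads (20 nM). Run 4 h at 30° C, pH 7.5, 2% DMSO; IC50 fitted from seven concentrations.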

[1] = determined similarly but with a 1a replicon, class symbol, read-out: EC50

T1 sequence (Q9WMX2 2420-2992): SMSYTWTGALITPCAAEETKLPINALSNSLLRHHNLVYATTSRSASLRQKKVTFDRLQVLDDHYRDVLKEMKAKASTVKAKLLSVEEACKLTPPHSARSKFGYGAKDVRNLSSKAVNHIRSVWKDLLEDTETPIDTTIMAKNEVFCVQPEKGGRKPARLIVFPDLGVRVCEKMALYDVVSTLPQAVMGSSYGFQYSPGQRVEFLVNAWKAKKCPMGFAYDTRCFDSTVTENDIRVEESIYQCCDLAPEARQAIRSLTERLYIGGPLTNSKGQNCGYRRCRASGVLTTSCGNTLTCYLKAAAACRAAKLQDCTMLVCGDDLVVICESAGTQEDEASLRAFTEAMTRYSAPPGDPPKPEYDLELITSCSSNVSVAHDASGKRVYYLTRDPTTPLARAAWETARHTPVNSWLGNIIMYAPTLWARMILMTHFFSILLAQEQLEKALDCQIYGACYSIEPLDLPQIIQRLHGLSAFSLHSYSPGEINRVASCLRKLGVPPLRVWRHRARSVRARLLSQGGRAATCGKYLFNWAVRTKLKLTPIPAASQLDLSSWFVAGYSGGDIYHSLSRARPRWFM

For `COc1ccc2c(c1)C=C(c1c(C(=O)N3C[C@@H](C)O[C@@H](C)C3)c(C(C)C)nn1C1CC1)Cn1c-2c(C2CCCCC2)c2ccc(C(=O)NS(=O)(=O)C(C)C)cc21`, the EC50 (1a replicon; [1]) was 1.7 to 500 nM.
`COc1ccc2c(c1)C=C(c1c(C(=O)N3C[C@@H](C)N(C)[C@@H](C)C3)c(C(C)C)nn1C1CC1)Cn1c-2c(C2CCCCC2)c2ccc(C(=O)NS(=O)(=O)C(C)C)cc21` gave an EC50 (1a replicon; [1]) of 1.7 to 500 nM.
Compound `COc1ccc2c(c1)C=C(c1c(C(=O)N3C4CCC3CN(C)C4)c(C(C)C)nn1C1CC1)Cn1c-2c(C2CCCCC2)c2ccc(C(=O)NS(=O)(=O)C(C)C)cc21` has an EC50 (1a replicon) of 1.7 to 500 nM.
`COc1ccc2c(c1)C=C(c1c(C(=O)N3C4CCC3COC4)c(C(C)C)nn1C1CC1)Cn1c-2c(C2CCCCC2)c2ccc(C(=O)NS(=O)(=O)C(C)C)cc21` was tested, and the EC50 (1a replicon) was 1.7 to 500 nM.
`COc1ccc2c(c1)C=C(c1c(C(=O)N3C[C@@H](C)O[C@@H](C)C3)cnn1C1CCC1)Cn1c-2c(C2CCCCC2)c2ccc(C(=O)NS(=O)(=O)N(C)C)cc21` [drawing 260] showed an EC50 (HCV replicon) of 1.7 to 500 nM and an IC50 (HCV NS5B) of 1.7 to 500 nM.
